Test results reported in ChEMBL document CHEMBL5375972, “Discovery of Novel 2,3-Dihydro-1H-indene-5-sulfonamide NLRP3 Inflammasome Inhibitors Targeting Colon as a Potential Therapy for Colitis” (J Med Chem, 2023).
Calls of active or inactive are those of the source. The calls are words filed in the database; no cut-off is given here.

Target: T1, Interferon-inducible protein AIM2 (Mus musculus) (UniProt Q91VJ1)
T1 sequence (whole entry): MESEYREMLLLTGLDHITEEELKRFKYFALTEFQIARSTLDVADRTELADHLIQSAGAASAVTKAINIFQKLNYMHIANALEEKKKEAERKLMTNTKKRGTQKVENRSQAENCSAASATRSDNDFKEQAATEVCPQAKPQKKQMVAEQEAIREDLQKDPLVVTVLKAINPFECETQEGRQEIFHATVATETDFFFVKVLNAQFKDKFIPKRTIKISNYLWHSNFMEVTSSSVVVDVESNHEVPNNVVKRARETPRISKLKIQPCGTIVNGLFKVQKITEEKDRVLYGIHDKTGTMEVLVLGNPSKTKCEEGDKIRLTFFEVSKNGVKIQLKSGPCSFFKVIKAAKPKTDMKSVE
Assay: Inhibition of AIM2 inflammasome in mouse J774.A1 cells assessed as inhibition of IL-1 beta secretion at 10 uM pretreated with LPS and compound for 1 hr and later stimulated with poly (dA:dT) for 8 hrs by ELISA
Format: cell-based
Settings: time 9.0 hrs

For `CCCNS(=O)(=O)c1ccc2c(c1)CC(N(Cc1cc(Cl)ccc1OCCOC)C(=O)c1cc3ccccc3o1)C2` (racemic), the inhibition was “inactive”.
